Here are results for six compounds from patent US20140243322A1, “BIVALENT BROMODOMAIN LIGANDS, AND METHODS OF USING SAME” (Coferon, Inc., priority 2011, published 2014).

The target in experiment [1] is N-terminal His 6-tagged BRD2 tandem protein. The experiment in a line: Surface Plasmon Resonance (SPR) off-rate assay. The class given is binding. Conditions: immobilized BRD2 tandem protein; saturating concentrations injected 5 minutes, buffer 20 minutes. The method, then: Surface Plasmon Resonance (SPR) Assay.
Off rates were determined using surface plasmon resonance measurements on a Bio-Rad ProteOn XPR 36 instrument. N-terminal His 6-tagged BRD2 tandem protein was immobilized by capturing on a ProteOn HTG sensor chip and then cross coupled to the surface using standard amine reactive chemistry. Selected bivalent inhibitors were injected on to the chip surface at saturating concentrations for 5 minutes followed by buffer for 20 minutes. The resulting sensorgrams were analyzed using the ProteOn XPR software to determine off-rates. Off rates for selected bivalent inhibitors were >100× slower when binding to the BRD2 tandem protein compared to the monovalent pharmacophores or compared to the bivalents binding to monobromodomain containing protein constructs.

For a further experiment, the system named is MV4-11 cells. Briefly: Inhibition of MV4-11 cell proliferation (Cell-Titer Glo). The class given is cell-based. Conditions: Homo sapiens, 72 hours of growth, read-out: GI50 range. The method, then:
Inhibition of MV4-11 Cell Proliferation.
MV4-11 cells (5000 cells in 50 μl volumes) in growth medium containing 10% FBS and 1% Pen/Strep were plated and grown overnight in 96 well plates and treated the next day with 3-fold dilutions of test compounds or with DMSO vehicle. After 72 hours of growth, 30 ul of Cell-Titer Glo reagent (Promega) was added to the wells and the plates incubated for 30 minutes. Luminescence was measured on a Spectramax M5 plate reader and GI50 values were calculated for each test compound.

Another experiment has as its system Myc mRNA. Briefly: Inhibition of Myc expression (Myc mRNA) in MV4-11 cells. The format is cell-based. Particulars: Homo sapiens, 4 hours of treatment, read-out: EC50 range, Myc mRNA normalized to GAPDH mRNA. An excerpt:
Inhibition of Myc Expression.

As for `CCNC(=O)C[C@@H]1N=C(c2ccc(Cl)cc2)c2cc(OCCOCCOCCOCCOCCOCCOCCNC(=O)C[C@@H]3N=C(c4ccc(Cl)cc4)c4cc(OC)ccc4-n4c(C)nnc43)ccc2-n2c(C)nnc21` [BRD-B-14, N-(20-(((4S)-6-(4-chlorophenyl)-4-(2-(ethylamino)-2-oxoethyl)-1-methyl-4H-benzo[f][1,2,4]triazolo[4,3-a][1,4]diazepin-8-yl)oxy)-3,6,9,12,15,18-hexaoxaicosyl)-2-((4S)-6-(4-chlorophenyl)-8-methoxy-1-methyl-4H-benzo[f][1,2,4]triazolo[4,3-a][1,4]diazepin-4-yl)acetamide], the “kd (off rate)” value in experiment [1] is 7.5e-05 s⁻¹. The GI50 in the experiment on MV4-11 cells fell in the range of 0.1 to 30 nM. In addition, the EC50 with Myc mRNA lay in the range of 0.1 to 30 nM.

In the case of `CCNC(=O)C[C@@H]1N=C(c2ccc(Cl)cc2)c2cc(OCCOCCOCCOCCOCCNC(=O)C[C@@H]3N=C(c4ccc(Cl)cc4)c4cc(OC)ccc4-n4c(C)nnc43)ccc2-n2c(C)nnc21` [BRD-B-12, N-(14-(((4S)-6-(4-chlorophenyl)-4-(2-(ethylamino)-2-oxoethyl)-1-methyl-4H-benzo[f][1,2,4]triazolo[4,3-a][1,4]diazepin-8-yl)oxy)-3,6,9,12-tetraoxatetradecyl)-2-((4S)-6-(4-chlorophenyl)-8-methoxy-1-methyl-4H-benzo[f][1,2,4]triazolo[4,3-a][1,4]diazepin-4-yl)acetamide], the GI50 in the experiment with MV4-11 cells lay in the range of 0.1 to 30 nM. In addition, in the experiment with Myc mRNA, the EC50 lay within 30 to 100 nM.

Turning to `COc1ccc2c(c1)C(c1ccc(Cl)cc1)=N[C@@H](CC(=O)NCCNC(=O)CNC(=O)C[C@@H]1N=C(c3ccc(Cl)cc3)c3cc(OC)ccc3-n3c(C)nnc31)c1nnc(C)n1-2` [BRD-B-07, 2-((S)-6-(4-chlorophenyl)-8-methoxy-1-methyl-4H-benzo[f][1,2,4]triazolo[4,3-a][1,4]diazepin-4-yl)-N-(2-(2-(2-((S)-6-(4-chlorophenyl)-8-methoxy-1-methyl-4H-benzo[f][1,2,4]triazolo[4,3-a][1,4]diazepin-4-yl)acetamido)acetamido)ethyl)acetamide], in the experiment with MV4-11 cells, the GI50 lay within 100 to 30000 nM. Moreover, the EC50 in the experiment on Myc mRNA was 100 to 30000 nM.

For `CCNC(=O)C[C@@H]1N=C(c2ccc(Cl)cc2)c2cc(OCCOCCNC(=O)C[C@@H]3N=C(c4ccc(Cl)cc4)c4cc(OC)ccc4-n4c(C)nnc43)ccc2-n2c(C)nnc21` [BRD-B-03, N-(2-(2-(((4S)-6-(4-chlorophenyl)-4-(2-(ethylamino)-2-oxoethyl)-1-methyl-4H-benzo[f][1,2,4]triazolo[4,3-a][1,4]diazepin-8-yl)oxy)ethoxy)ethyl)-2-((4S)-6-(4-chlorophenyl)-8-methoxy-1-methyl-4H-benzo[f][1,2,4]triazolo[4,3-a][1,4]diazepin-4-yl)acetamide], the “kd (off rate)” value in experiment [1] came to 0.00011 s⁻¹. Besides, the GI50 in the experiment with MV4-11 cells was in the range of 30 to 100 nM.

Take `COc1ccc2c(c1)C(c1ccc(Cl)cc1)=N[C@@H](CC(=O)NCCOCCOCCOCCOCCOCCOCCOCCOCCOCCNC(=O)C[C@@H]1N=C(c3ccc(Cl)cc3)c3cc(OC)ccc3-n3c(C)nnc31)c1nnc(C)n1-2` [BRD-B-23, (S)—N,N′-(3,6,9,12,15,18,21,24,27-nonaoxanonacosane-1,29-diyl)bis(2-((4S)-6-(4-chlorophenyl)-8-methoxy-1-methyl-4H-benzo[f][1,2,4]triazolo[4,3-a][1,4]diazepin-4-yl)acetamide)]: the 50% growth inhibitory concentration (GI50) in the experiment on MV4-11 cells lay within 0.1 to 30 nM. Moreover, the concentration giving a half-maximal response (EC50) with Myc mRNA was in the range of 30 to 100 nM.

Consider `COc1ccc2c(c1)C(c1ccc(Cl)cc1)=N[C@@H](CC(=O)NCCNC(=O)NCCNC(=O)C[C@@H]1N=C(c3ccc(Cl)cc3)c3cc(OC)ccc3-n3c(C)nnc31)c1nnc(C)n1-2` [BRD-B-06, (S)—N,N′-((carbonylbis(azanediyl))bis(ethane-2,1-diyl))bis(2-((S)-6-(4-chlorophenyl)-8-methoxy-1-methyl-4H-benzo[f][1,2,4]triazolo[4,3-a][1,4]diazepin-4-yl)acetamide)], for which the GI50 in the experiment on MV4-11 cells was 100 to 30000 nM. Further, the 50% effective concentration (EC50) in the experiment with Myc mRNA was in the range of 100 to 30000 nM.
